In this assay the test system is HepG2 TRIB1 mRNA expression, RT-qPCR, 6 h. In words: gene expression changes with sterol depletion – cell-based, HepG2, RT-PCR, cherry-pick, mechanism study for Trib1 inducer project, late-stage follow-up (AID 1053152). The conditions noted are these: hits give high values.

In PubChem BioAssay AID1053152 (Broad Institute, 2014) one finds fold induction data, which are given here for one compound.

One may read the fold induction as the signal under treatment as a multiple of the control signal.

For `CN1C(=O)c2cc(NC(=O)c3ccc(C(F)(F)F)cc3)ccc2OC[C@@H]2O[C@H](CC(=O)NC3Cc4ccccc4C3)CC[C@@H]21`, the fold induction was 2.5.
